Source: BigSolDB 2.1

CCOc1ccc(C=O)cc1O
solubility (mole fraction)
Conditions | 283.15 K | 288.15 K | 293.15 K | 298.15 K | 303.15 K | 308.15 K | 313.15 K | 318.15 K | 323.15 K
in THF | 0.0523 | 0.0624 | 0.071 | 0.0842 | 0.094 | 0.108 | 0.123 | 0.138 | 0.156
in acetone | 0.0425 | 0.0467 | 0.0515 | 0.057 | 0.0652 | 0.0718 | 0.0819 | 0.092 | 0.114
in acetonitrile | 0.0105 | 0.0133 | 0.015 | 0.0191 | 0.0228 | 0.0285 | 0.0353 | 0.0406 | 0.0551
in ethanol | 0.0066 | 0.0078 | 0.0101 | 0.012 | 0.0141 | 0.0179 | 0.0224 | 0.0276 | 0.0345
in ethyl acetate | 0.0166 | 0.0194 | 0.0212 | 0.0259 | 0.0288 | 0.0361 | 0.0416 | 0.0511 | 0.0606
in ethyl formate | 0.0135 | 0.0172 | 0.0196 | 0.0236 | 0.0278 | 0.0341 | 0.0415 | 0.0488 | 0.0605
in isopropanol | 0.0035 | 0.005 | 0.0063 | 0.0082 | 0.01 | 0.0129 | 0.0168 | 0.0216 | 0.0277
in isopropyl acetate | 0.013 | 0.0156 | 0.0187 | 0.0202 | 0.0227 | 0.0274 | 0.0325 | 0.0387 | 0.0457
in methanol | 0.0072 | 0.0091 | 0.0119 | 0.0159 | 0.0206 | 0.0268 | 0.0362 | 0.0482 | 0.0635
in methyl acetate | 0.0166 | 0.0205 | 0.0263 | 0.0301 | 0.0331 | 0.0409 | 0.048 | 0.0557 | 0.0678
in n-propanol | 0.0048 | 0.0065 | 0.0077 | 0.0098 | 0.0118 | 0.0149 | 0.0194 | 0.0246 | 0.0312
in toluene | 0.0032 | 0.0037 | 0.0042 | 0.0049 | 0.0057 | 0.0068 | 0.0077 | 0.0092 | 0.011
